Data: publication PMC12037037 (Proceedings of the National Academy of Sciences of the …, 2025)

Tested on: panel of 55 central nervous system targets
Test: Competitive radioligand binding selectivity panel (Eurofins Discovery)
Description: Figure S3. Selectivity profiles for (+)-JRT and (–)-JRT across 55 central nervous system targets. The effects of (+)- JRT (10 μM) and (–)-JRT (10 μM) on a wide range of targets were assessed by Eurofins Discovery. Data represent % inhibition of the binding of a radioactively labeled ligand specific for each target. Assays were conducted in duplicate and the results were averaged.
Data Analysis and Statistics. Treatments were randomized, and data were analyzed by experimenters blinded to treatment conditions. Statistical analyses were performed using GraphPad Prism (version 10.0.3) unless noted otherwise.
All comparisons were planned prior to performing each experiment. No data were excluded. Data are represented as mean ± SEM, unless noted otherwise, with asterisks indicating *p < 0.05, **p < 0.01, ***p < 0.001, and ****p < 0.0001. Details of all statistical tests are shown in SI Appendix, Table S1. […]
Both (+)-JRT and (–)-
JRT were synthesized in-house and judged to be analytically pure based on NMR and LC-MS data. For cell culture experiments, VEH = 0.1% (agonist studies) or 0.2% (antagonist studies) molecular biology grade dimethyl sulfoxide (Sigma-Aldrich). For in vivo experiments, compounds were administered i.p. at 5 mL/kg using 0.9% saline as the vehicle, unless noted otherwise. VEH = USP grade saline (0.9%). Stock solutions for behavioral assays were prepared fresh before use.
Fumarate salts of (+)-JRT and (–)-JRT were used for all biological studies unless noted otherwise.
Animals. All experimental procedures involving animals were approved by the Institutional Animal Care and Use Committee (IACUC) at the University of California, Davis, the Salk Institute, Weill Cornell Medicine, McLean Hospital (Harvard Medical School), or the Contract Research Organization (CRO) where the study was performed. All procedures involving animals adhered to principles described in the National Institutes of Health Guide for the Care and Use of Laboratory Animals.
Animals were either obtained from Jackson Laboratory (Sacramento, C.A.) or bred in-house unless noted otherwise. Power analyses were conducted to ensure appropriate sample sizes for all experiments involving animals. Animals were housed 2–5 animals of the same sex per cage on a 12h light/dark cycle and were given ad libitum access to food and water unless noted otherwise. The University of California, Davis, the Salk Institute, and Weill Cornell Medicine are accredited by the Association for Assessment and Accreditation of Laboratory Animal Care International (AAALAC). Whenever possible, both sexes were utilized. However, a single sex was utilized in some cases when 1) a contract research organization had only […]
Radioligand Binding Selectivity Panel. Competitive radioligand binding studies for (+)-JRT (10 μM) and (–)-JRT (10 μM) were performed across a panel of receptors at Eurofins Discovery. Experiments were performed using the free bases of […]
radioligand and source of receptor (5,6,7,8,9,10,11,12).
Radioligand Binding Assays (5-HT2AR and 5-HT2CR). The 5-HT2AR and 5-HT2CR competitive radioligand binding assays were performed at Epics Therapeutics S.A. (Belgium, FAST-0505B) using conventional methods. Experiments were performed using the free bases of (+)-JRT and (–)-JRT. […] Nonspecific binding was determined by co-incubation with 200-fold excess of cold competitor DOI. […]

CCN(CC)C(=O)[C@@H]1C=C2c3cccc4ccn(c34)C[C@H]2N(C)C1 [(+)-JRT]
Selectivity across panel of 55 central nervous system targets (10 μM, free bases): highly selective for a subset of serotonin receptors | Affinity for dopamine, histamine, or adrenergic receptors (radioligand binding, unlike LSD): neither of these compounds exhibited affinity | Affinity for dopamine, histamine, muscarinic, and adrenergic receptors (unlike CLZ): lacks affinity
